For test [1], the system named is Myo19-eGFP expressing U2OS cells. Description: Myo19 foci formation / translocation to cell periphery in Myo19-eGFP expressing cells treated with cytoskeleton interfering drugs. Format: cell-based. The protocol:
Cells were rinsed once and incubated in starvation medium (Glucose free DMEM supplemented with 20 mM Hepes-KOH pH 7.4, 5 mg/ml BSA, 100 U/ml penicillin, 100 μg/ml streptomycin and 0.25 μg/ml amphotericin B). Cytoskeleton interfering drugs (final concentration: 0.2 μM Latrunculin B or 0.75 μg/ml Nocodazole) were first diluted in growth media and then added to the cells.
(§1) Transfections were performed using Polyethylenimine (PEI). Adherent U2OS cells were plated a day before transfection on plastic or glass bottom dishes and allowed to adhere overnight (ON). Plasmid DNA and PEI were diluted separately in 150 mM NaCl, combined and complex formation was allowed for 25 min at RT before addition to the cells and incubation ON. Hoechst 33342 (0.75 μg/ml Sigma), MitoTracker (30 nM, Molecular probes) and Propidium iodide (1 μg/ml, Sigma) were added 15 min prior to imaging. HaloTag constructs were stained by incubating the cells with HaloTag TMR Ligand ON (25 nM, Promega). The cells were imaged using InCell Analyzer 2000, Confocal Zeiss LSM 700 or Confocal Zeiss LSM 710 in an environmental chamber.
Mitochondria function as an intracellular biosensor that responds to environmental changes, stress cues and physiological stimuli. Therefore, it is essential to test the function of myosin 19 and its relation to mitochondrial distribution and morphology in cells under starvation conditions as well under drugs, which disrupt cytoskeletal structures. Starvation stress was chosen because it strongly shifts mitochondrial dynamics of fission and fusion, inducing hyperfusion of the mitochondrial network, and that fission and fusion depend on force generation on the mitochondria. Therefore, it was assessed whether or not starvation-induced hyperfusion is accompanied by any differential cellular localization of myosin 19. Myosin 19-eGFP was overexpressed and cells were starved for four hrs. […] The inventors further tested if myosin 19 OMM binding motif is essential for this starvation-induced localization (FIG. 3A, middle two panels). […] This lends further support to the interpretation that myosin 19^Δ860-890-eGFP cannot compete with the endogenous myosin 19 because of its inability to bind the mitochondria. The inventors further assessed whether this transition of myosin 19 to the cell periphery requires myosin 19 motor activity utilizing an overexpression of myosin 19 tail (FIG. 3A, bottom two panels, FIG. 8) and an ATPase dead mutant G 135R (FIG. 9, FIG. 8). […] Indeed, pre-treatment of cells with 0.2 μM Latrunculin B that disrupts actin filaments of the cytoskeleton for 30 min inhibited the starvation-induced translocation of myosin 19 and the mitochondria to the cell periphery (FIG. 3B, FIG. 10). […]

Test [2] deals with lipid SUVs with a phospholipid composition similar to the OMM (55% PC, 30% PE, 13% PI, 2% DOPS). Description: Equilibrium binding of peptides to OMM mimicking vesicles by fluorescence anisotropy. The method, then: (§2) Phosphatidylcholine (PC, Sigma), Phosphatidylethanolamine (PE, Sigma), Phosphatidylinositol (PI, Sigma) and Dioleoyl phosphatidylserine (DOPS, Avanti) were mixed in chloroform and evaporated under nitrogen. The vesicles were then resuspended in 40 mM Hepes pH 7.1, 150 mM NaCl and subjected to 10 freeze-thaw cycles in liquid nitrogen and kept in −80° C. The vesicles were thawed and sonicated for five min at low intensity; insoluble material was removed by centrifugation at 100,000×gav for 20 min. Vesicles were used within two days after sonication.
(§3) Equilibrium binding by Fluorescence Anisotropy (FA) measurements was performed with PCI spectrofluorimeter (ISS, Champaign, Ill.) designed as T-format for simultaneous acquisition on two emission channel monochromators equipped with automatic polarizers. Samples were equilibrated (60 min, RT) and then measurements were done with intrinsic fluorescence of the peptide with λex=280 nm using vertical polarized light and the emitted vertical and horizontal polarized light was monitored at 90° with double emission monochromators at λem=325 nm. (i-factor for correction of the different gain between the dual PMT detectors was calculated as described by the instrument manufacturer. The binding model for a simple bimolecular reaction was:
[formula] [formula] Under the condition of Ptot<<KD then the general solution for this equilibrium binding scheme is in the form of the following quadratic equation:
[formula] Ptot is monitoring species; Vtot is titrating species and [PV] is the bound species. The total fluorescence and anisotropy were fitted globally (Origin Lab 9.0) according to Otto et al. Biophys J, 1994. 67(6): p. 2511-21.
Myo19 peptides were purchased as crude preparations and resuspended in 10% Acetonitrile (ACN) and either 0.1% (for Myo19^851-895) or 0.01% (for Myo19^858-883 and Myo19^858-RK883SS) trifluoroacetic acid (TFA). The peptides were then loaded on a C-18 column (Waters) and separated by reverse phase chromatography. Peaks were analyzed by MALDI-TOF and verified to be of the right molecular weight corresponding to the peptide size. The peptides were then dried and resuspended in either 5% DMF (Myo19^858-883 and Myo19^RK883SS) or 16% DMF (Myo19^851-895) in binding buffer (40 mM Hepes pH 7.1, 150 mM NaCl). Myo19^851-895, Myo19^858-883, Myo19^858-RK883SS peptides were from GL Biochem (Shanghai, China). Zeta1 was from Sigma (Saint Louis, Mo., USA).
To characterize Myo19 membrane binding motif, the binding of a synthetic peptide representing Myo19 residues 851-895 (SEQ ID NO: 12, Table 3) to lipid SUVs (Small unilamellar vesicles) with a phospholipid composition similar to the OMM (55% PC, 30% PE, 13% PI, 2% DOPS (de Kroon et al., 1997)) was tested. Binding was followed via fluorescence anisotropy (FA) relying on two tryptophan residues that are present in the peptide. […] Equilibrium binding of Myo19 peptide to vesicles was monitored by titrating peptide versus increasing vesicles concentration. […] Therefore, to account for the FTI change during the FA measurements, global fitting to both signals arising from peptide binding to vesicles to compensate for the change in fluorescence yield during FA measurements was applied. […] In-vitro binding of a hydrophilic peptide Zeta1 (SEQ ID NO:15, Table 3), was much weaker (˜2.5 folds) compared to the Myo19 peptide (124.4±18.7 μM), supporting the notion that Myo19-OMM binding is mediated by hydrophobic interactions (FIG. 23). Although our newly identified membrane motif is essential and sufficient for OMM localization in cells, the cellular specificity may be achieved by unique, yet unidentified cytosolic or others mitochondrial components.
On the technique in general: Fluorescence polarisation rises when a labelled molecule tumbles more slowly, as on binding a larger partner.

Test [3] relates to mitochondria (MitoTracker) or ER. Description: Colocalization of eGFP-fused myosin 19 tail constructs with mitochondria (MitoTracker) or ER (SRβ). The test is classed as cell-based. To be noted: myosin 19^824-970-eGFP and mutant variants ectopically expressed. The method, then:
Generation of peGFP-myosin 19 mutations and truncations were performed using high fidelity PCR enzymes with phosphorylated primers (Phusion, T4 PNK, NEB). We used peGFP-myosin 19 (peGFP-N1b was kindly provided by Dr. Ayoub (Technion-IIT)) or peGFP-myosin 19 tail (aa 824-970) as template with a single exception for peGFP-myosin 19^860-890 where peGFP-myosin 19^860-970 was used. The products were ligated using T4 ligase (NEB, Promega) and sequenced.
as §1
In accordance to the finding in the cells (FIG. 2A), Myo19^860-890-eGFP was co-purified with mitochondria, however unlike the endogenous Myo19, it appears to be more sensitive to extraction by salt. Carbonate completely extracts Myo19^860-890-eGFP from purified mitochondria, similarly to endogenous Myo19 (FIG. 22). The difference in salt sensitivity may be due to insufficient length of the motif to be fully anchored in the membrane as in the WT endogenous protein. Another possibility is that a certain part of Myo19^860-890-eGFP was correctly anchored, where the rest was present there nonspecifically, e.g. through dimerization of eGFP. […] To further explore the OMM targeting the motif sequence was examined. Although there is no consensus sequence targeting proteins to the OMM, it was shown that a moderately hydrophobic motif flanked by positive residues is required for OMM localization. […]

The target in test [4] is ER mimicking vesicles (20% PE, 66 & PC, 9% PI, 3% DOPS). Description: Equilibrium binding of peptides to ER mimicking vesicles by fluorescence anisotropy. To be noted: FA/FTI global fit; peptide concentrations 4 μM; N=1; read-out: affinity to ER mimicking vesicles. The method, then:
as §2, §3
[formula] […]

[5] abbreviates: FA/FTI global fit, peptide concentrations 4 μM, N=1, read-out: affinity to OMM mimicking vesicles.

“Also recorded” adds a separate entry of the source. Read-outs that look alike come from different tables or passages of the source.

For `C/C1=C/C(=O)O[C@@H]2C[C@@H](CC[C@H](C)/C=C\CC1)O[C@@](O)([C@@H]1CSC(=O)N1)C2` [Latrunculin B], the “cells showing <2 Myo19 foci” value in test [1] (0.2 μM latrunculin B 30 min prior to starvation) is < 30 % of the cells. Also, in test [1] (0.2 μM, 30 min pre-treatment, then starvation), the “starvation-induced translocation of myosin 19 and the mitochondria to the cell periphery” value is recorded as “inhibited”. For the molecule “PLQTRLLEAIIRLWPLGLVLANTAMGVGSFQRKLVVWACLQLPRG [Myo19^851-895, synthetic peptide representing Myo19 residues 851-895]”, in test [2] ([NaCl] up to 1 M, peptide and vesicles 35 μM each), the “effect of [NaCl] on the magnitude of binding to vesicles” value is “no effect”. For the same molecule, the Kd in test [2] (global fit of FA and FTI, peptide concentration 35 μM, 40 mM Hepes pH 7.1, 150 mM NaCl, read-out: apparent binding constant KD) worked out at 281 ± 50 µM.

Take “IIRL*WPLGLVLANTAMGVGSF*QSSLVVWACL (IIRLWPLGLVLANTAMGVGSFQSSLVVWACL) [RK882/3SS, myosin 19 tail-eGFP construct with R882S and K883S in combination]”: in test [3] (listed as SEQ ID NO: 10), the Localization result was “shift of the intracellular localization of Myo19 to the ER”. For the molecule “FRWGKPVGKKRRPVKVYPNGAEDESAEAFPLE [Zeta1, reference compound]”, in test [2] (setting [5]), the Kd turned out to be 124 ± 18.7 µM. In addition, in test [2] (Zeta1 versus Myo19 peptide), the “binding weaker compared to the Myo19 peptide” value is around 2.5 folds.

In the case of “EAIIRLWPLGLVLANTAMGVGSFQSS [Myo19^858-RK882/3SS, corresponding ER mutant of the shorter Myo19 peptide]”, in test [2] (setting [5]), the Kd stood at 49 ± 17.2 µM.

Consider “EAIIRLWPLGLVLANTAMGVGSFQRK [Myo19^858-883, shorter peptide derived from Myo19 membrane motif]”, for which the Kd in test [4] came out at 50.5 ± 22 µM; in test [2] (setting [5]) it was 45 ± 14.1 µM. For `COC(=O)Nc1nc2ccc(C(=O)c3cccs3)cc2[nH]1` [nocodazole], the “localization of myosin 19 and mitochondria after nocodazole treatment” value in test [1] (0.75 μg/ml nocodazole for three hrs, no starvation) was “induced the same altered localization”. Moreover, the “cells with induced Myo19 foci formation” value in test [1] (nocodazole treatment, complete media conditions) is > 80 % of the cells. As to “IIRL*WVLGLVLANTAMGVGSF*QRKLVVWACL (IIRLWVLGLVLANTAMGVGSFQRKLVVWACL) [Peptide P865V, myosin 19 tail-eGFP construct with point mutation P865V]”, in test [3], the Localization entry was “dual localization to both the ER and the mitochondria; also recorded: ER/Mito-”.

B1: IIRL*WPLGLVLANTAMGVGSF*QRKLVVWACL (protein, UniProt Q96H55 824-970, looked up, fragment)
chain: MACLAAKELDGVEEKHFSQAPCSLSTSPLQTRLLEAIIRLWPLGLVLANTAMGVGSFQRKLVVWACLQLPRGSPSSYTVQTAQDQAGVTSIRALPQGSIKFHCRKSPLRYADICPEPSPYSITGFNQILLERHRLIHVTSSAFTGLG
modifications: eGFP fusion
As for B1, in test [3], the Localization result was “Mito-”.

The record behind these values is US10782294B2, “Peptides derived from myosin 19 and methods of use thereof” (TECHNION RESEARCH & DEVELOPMENT FOUNDATION LIMITED, priority 2014, dated 2020).
